Where two headings read alike, the source gives them in different places.
Tests used:
[1] = molecular target: T1, IKK2 (Homo sapiens, UniProt O14920); assay: IKKβ Resin Enzyme Assay (IKK2 resin); type: biochemical
T1 construct: made in house; host or cells: insect cells (baculovirus, pFastBac; SF9)
T1 sequence (O14920 1-756): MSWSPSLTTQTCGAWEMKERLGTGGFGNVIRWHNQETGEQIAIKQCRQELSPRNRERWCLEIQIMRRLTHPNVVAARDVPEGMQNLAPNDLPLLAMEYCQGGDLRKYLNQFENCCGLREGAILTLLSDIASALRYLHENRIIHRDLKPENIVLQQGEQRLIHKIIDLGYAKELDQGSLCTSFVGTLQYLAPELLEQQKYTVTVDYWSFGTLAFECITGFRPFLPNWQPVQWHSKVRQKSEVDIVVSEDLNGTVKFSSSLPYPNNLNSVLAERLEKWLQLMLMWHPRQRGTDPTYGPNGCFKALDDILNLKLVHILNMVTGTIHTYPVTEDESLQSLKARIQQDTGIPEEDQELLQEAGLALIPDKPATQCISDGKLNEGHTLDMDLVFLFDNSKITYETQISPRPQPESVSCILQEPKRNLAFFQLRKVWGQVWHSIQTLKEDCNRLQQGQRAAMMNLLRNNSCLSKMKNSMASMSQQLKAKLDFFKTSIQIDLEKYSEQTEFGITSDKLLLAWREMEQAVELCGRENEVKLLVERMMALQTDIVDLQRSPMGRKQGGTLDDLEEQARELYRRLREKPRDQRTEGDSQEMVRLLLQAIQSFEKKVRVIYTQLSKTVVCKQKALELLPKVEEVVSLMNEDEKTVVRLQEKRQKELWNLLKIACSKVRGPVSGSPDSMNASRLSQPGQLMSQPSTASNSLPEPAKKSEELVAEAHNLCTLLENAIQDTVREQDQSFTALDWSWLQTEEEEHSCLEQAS
Outline: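 Radiometric test: [γ-33P]ATP incorporation into a biotinylated IκBα peptide, 30 min at 25° C, pH 7.6 Hepes with MgCl2/MnCl2 and 1 μM cold ATP. Reaction is quenched with Dowex resin and the supernatant is counted. Kinase is FLAG-purified homodimeric recombinant human IKK2 from insect cells.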

[2] = Table 5, read-out: IKK2 Resin Avg. IC50
[3] = Table 7, read-out: IKK2 Resin IC50

With `CNc1ccc(Cl)c(C(=O)Nc2ccc3c(c2)-c2c(c(C(N)=O)nn2-c2ccc4c(c2)OCO4)CC3)n1` [Example 220, 1-(1,3-benzodioxol-5-yl)-8-({[3-chloro-6-(methylamino)pyridin-2-yl]carbonyl}amino)-4,5-dihydro-1H-benzo[g]indazole-3-carboxamide] the melting point was 269 to 270 °C (dec.) and the IC50 [1, 2] was no more than 1000 nM.

For `NC(=O)c1nn(-c2ccc3c(c2)OCO3)c2c1CCc1ccc(NC(=O)c3cccnc3Cl)cc1-2` [Example 161, 1-(1,3-benzodioxol-5-yl)-8-{[(2-chloropyridin-3-yl)carbonyl]amino}-4,5-dihydro-1H-benzo[g]indazole-3-carboxamide], the melting point was 165 to 166 °C and the IC50 ([1]; Table 4, read-out: IKK2 Resin IC50) was no more than 1000 nM.

Compound `NC(=O)c1nn(-c2ccc(F)cc2)c2c1CCc1ccc(NC(=O)c3cc(N4CCOCC4)ncc3Cl)cc1-2` [Example 249, 8-[(5-chloro-2-morpholin-4-ylisonicotinoyl)amino]-1-(4-fluorophenyl)-4,5-dihydro-1H-benzo[g]indazole-3-carboxamide] has a melting point of 309 to 313 °C and an IC50 [1, 3] of no more than 1000 nM.

In the case of `NC(=O)c1nn(-c2ccc3c(c2)OCO3)c2c1CCc1ccc(NC(=O)c3nc(N4CCOCC4)ccc3Cl)cc1-2` [Example 219, 1-(1,3-benzodioxol-5-yl)-8-{[(3-chloro-6-morpholin-4-ylpyridin-2-yl)carbonyl]amino}-4,5-dihydro-1H-benzo[g]indazole-3-carboxamide], the melting point is reported as 260 to 262 °C (dec.) and the IC50 [1, 2] is reported as no more than 1000 nM.

With `CN1CCN(c2cc(C(=O)Nc3ccc4c(c3)-c3c(c(C(N)=O)nn3-c3ccc(F)cc3)CC4)ccn2)CC1` [Example 251, 1-(4-fluorophenyl)-8-{[2-(4-methylpiperazin-1-yl)isonicotinoyl]amino}-4,5-dihydro-1H-benzo[g]indazole-3-carboxamide] the melting point was 277 to 279 °C and the IC50 [1, 3] was no more than 1000 nM.

`NC(=O)c1nn(-c2ccc(F)cc2)c2c1CCc1ccc(NC(=O)c3nc(N4CCOCC4)ccc3Cl)cc1-2` [Example 255, 8-{[(3-chloro-6-morpholin-4-ylpyridin-2-yl)carbonyl]amino}-1-(4-fluorophenyl)-4,5-dihydro-1H-benzo[g]indazole-3-carboxamide] showed a melting point of 252 to 254 °C and an IC50 [1, 3] of no more than 1000 nM.
